# Source: paper PMC11292626, “5-Fluoroindole Reduces the Bacterial Burden in a Murine Model of Mycobacterium tuberculosis Infection” (ACS Omega, 2024)
# “Also recorded” adds a separate entry of the source. Like-named read-outs stand apart in the source and are kept apart here.
# Columns and labels:
# [1] = test system: Mycobacterium tuberculosis H37Rv Strain; assay: MIC by resazurin reduction microplate assay (REMA), H37Rv; assay type: cell-based; settings: Mtb H37Rv, REMA
# [2] = Chemical stability at pH 1.2, 7.4 and 9.1; assay type: physicochemical; settings: 37 °C for 24 h
# Protocol: The compounds to be tested were prepared in a 100 μM solution and incubated at 37 °C for 24 h in three solutions representing the physiologically relevant pHs to drug administration: pH 1.2 (stomach), pH 7.4 (plasma), and pH 9.2 (intestinal tissue). The compounds were quantified by HPLC-MS/MS. The chemical stability experiments were carried out in triplicates to ensure reproducibility. The results were presented as percentage, comparing the signal at time zero of the assay, considering this measure 100%, with measurements after the incubation time. Alprenolol was used as the analytical control (data not shown). The results were presented as the percentage, comparing the signal at time zero of the assay (100%) with the signal produced by concentrations after the incubation period.
# [3] = Metabolic stability in rat liver microsomes; assay type: in vitro ADME
# Protocol: The compound was incubated at 37 °C in the concentration of 20 μM with rat liver microsomal fractions in PBS solution at pH 7.4 solution. As previously described,[31] rat liver microsomal fractions were seeded by centrifugation at 9.000 × g. To the supernatant containing the postmithocondrial with cytosolic and membrane-bound enzymes, 4 μM 5-FI was added and incubated at 37 °C. The interaction between the compound in the incubation mixture and the enzyme containing NADPH at 1 mg/mL concentration was measured by HPLC-MS/MS technique to determine the in vitro compound consumption by the microsomal fractions at 0, 5, 15, and 30 min reaction (incubation) time. The intrinsic compound clearance was taken as the half-life, and the disappearance was compared with the positive control, verapamil(2 μM).
# [4] = Chemical stability in H2O at 37 °C, open and closed system (volatility assay)
# [5] = SOS Chromotest ref 25; cited from earlier work
# [6] = Cellular viability (MTT and neutral red uptake), Vero; assay type: cell-based; settings: African green monkey, Vero cells; 72 h of exposure; MTT and neutral red assays
# Protocol: (§1) To assess the selectivity and potential toxicity of 5-FI, the effects on the viability of both HepG2 and Vero mammalian cell lines were evaluated. Cell viability was measured after 72 h of incubation with concentrations of 2, 5, and 20 μM of the compound. […] Two methods were used to assess the cell integrity: the MTT assay, which evaluates mitochondrial viability, and the neutral red assay, which assesses lysosomal functionality.
# (§2) To determine the cellular viability, the cells were incubated with the 5-fluoro-1H-indole compound with 3-(4,5-dimethylthiazol-2-yl)-2,5-diphenyl-2H-tetrazolium bromide (MTT)[29] and neutral red uptake (NRU)[30] methods. […] The formed formazan crystals were dissolved with 100 μL of DMSO, and the absorbance of this solution was measured at 595 nm using an EZ Read 400 microplate reader (Biochrom, Holliston, MA, USA). The absorbance of the formazan crystals, diluted with DMSO, was directly proportional to the number of live cells with active mitochondria, corresponding to their viability. The mean value of absorbance of control wells was taken as 100% viability, and the values of treated cells were calculated as the percentage of vehicle control containing 0.5% DMSO. […]
# [7] = test system: Vero cells; assay: as above; assay type: cell-based; settings: 2, 5 and 20 μM, 72 h; MTT and neutral red; listed as 5-FI
# Protocol: as §1, §2
# [8] = In vivo absorption assay: plasma concentration after gavage; settings: 400 mg/kg, mice
# [9] = Parallel artificial membrane permeability assay (PAMPA); assay type: in vitro ADME; settings: pH 7.4, 5 h
# Protocol: 5-FI was quantified by HPLC-MS after a period of incubation and separated into two fractions by a permeable lipidic membrane. The result is expressed in velocity units of permeation (cm/s). The lipidic membrane is previously prepared with specific activation solutions that create a hydrophobic surface, simulating the intestinal epithelial tissue. To the donor aqueous phase (pH 7.4), 100 μM compound is added. To the previously prepared membrane is added the receptor aqueous phase (pH 7.4), and the mixture is incubated for 5h at room temperature with both receptor and donor aqueous phases in contact, separated just by the membrane. The compound transported by passive diffusion is measured by taking an aliquot of receptor solution and analyzing it by HPLC-MS/MS.
# [10] = Aqueous solubility at different pHs; assay type: physicochemical; settings: thermodynamic from solid, 25 °C for 4 h
# Protocol: The compound was weighed (1 mg) and solubilized in phosphate-buffered saline (PBS, pH 7.4), HCl 0.1 M (pH 1.2), and NH4HCO3 0.1 M (pH 9.2) to a final concentration of 1 mg/mL. The solutions were kept under stirring (250 rpm) for 4h at 37 °C. The solutions were filtered ([…] PDVA filter) and analyzed by HPLC. DMSO solution 1 mg/mL was used as the control for 100% soluble.
# [11] = Cellular viability (MTT and neutral red uptake), HepG2; assay type: cell-based; settings: human, HepG2 cells; 72 h of exposure; MTT and neutral red assays
# Protocol: as §1, §2
# [12] = test system: HepG2 cells; assay: as above; assay type: cell-based; settings: 2, 5 and 20 μM, 72 h; MTT and neutral red; listed as 5-FI
# Protocol: as §1, §2
smiles,measurement,setting,value
"Fc1ccc2[nH]ccc2c1 [Compound 1, 5-Fluoroindole]",MIC,[1]; most frequent value of three independent assays,4.7 µM
same,MIC,"[1]; Mycobacterium tuberculosis, H37RV",0.63 µg/mL
same,chemical stability pH 1.2,[2]; 0.1 M HCl,37.2%
same,chemical stability pH 9.1,"[2]; 0.1 M NH4HCO3, listed as 5-FI",99.2%
same,chemical stability pH 7.4,"[2]; PBS, listed as 5-FI",58.5%
same,CLint scaled,"[3]; pH 7.4, read-out: metabolic stability Clint (intrinsic clearance)",9 mL/min/kg
same,half-life,"[3]; pH 7.4, read-out: metabolic stability t1/2 (half-life)",144 min
same,"chemical stability, closed system",[4]; 0 h,100 ± 0.0%
same,"chemical stability, open system",[4]; 0 h,100 ± 0.0%
same,"chemical stability, closed system",[4]; 1 h,97.5 ± 0.1%
same,"chemical stability, open system",[4]; 1 h,97.5 ± 0.2%
same,"chemical stability, closed system",[4]; 2 h,95.2 ± 0.0%
same,"chemical stability, open system",[4]; 2 h,95.4 ± 0.2%
same,"chemical stability, closed system",[4]; 4 h,93.3 ± 0.1%
same,"chemical stability, closed system",[4]; 6 h,87.8 ± 0.0%
same,"chemical stability, open system",[4]; 6 h,88.9 ± 0.2%
same,"chemical stability, closed system",[4]; 24 h,86.1 ± 0.0%
same,"chemical stability, open system",[4]; 24 h,89.1 ± 0.2%
same,"chemical stability, closed system",[4]; 48 h,80.3 ± 0.1%
same,"chemical stability, open system",[4]; 48 h,85.5 ± 0.1%
same,genotoxicity,[5],does not exhibit genotoxicity
same,CC50 at 72 h,[6],> 20 µM
same,cell viability / cytotoxicity in Vero (in words),[7],not altered; also recorded: no cytotoxicity; also recorded: low cytotoxicity
same,concentration at 15 min,"[8]; female, CF-1, mouse, in vivo, plasma concentration, mean ± SD, gavage 400 mg/kg, 15 min",45.2 ± 14.8 µM
same,concentration at 30 min,"[8]; female, CF-1, mouse, in vivo, plasma concentration, mean ± SD, gavage 400 mg/kg",79.4 ± 19.4 µM
same,concentration at 30 min,"[8]; female, CF-1, mouse, in vivo, po, plasma concentrations (range), oral 400 mg/kg, joint range over 5-FI and 5-FI.HCl",79 to 82 µM
same,plasma concentrations (range),"[8]; gavage 400 mg/kg, joint range over 5-FI and 5-FI.HCl, 15 and 30 min, listed as 5-FI",32.6 to 82.3 µM
same,"Papp at 5 h, 100 μM",[9],2.4 ×10⁻⁶ cm/s
same,solubility at 4 h,"[10]; pH 1.2, simulated gastric fluid, 0.1 M HCl, read-out: aqueous solubility pH 1.2",> 550 µM
same,solubility at 4 h,"[10]; pH 9.1, aqueous buffer, 0.1 M NH4HCO3, read-out: aqueous solubility pH 9.1",2.2 µM
same,solubility at 4 h,"[10]; phosphate-buffered saline, pH 7.4, aqueous buffer, PBS, read-out: aqueous solubility pH 7.4",3.5 µM
same,CC50 at 72 h,[11],> 20 µM
same,cell viability / cytotoxicity in HepG2 (in words),[12],not altered; also recorded: no cytotoxicity; also recorded: low cytotoxicity
